Test results from PubChem BioAssay AID1918938 (Molecular Pharmacology Branch, DTP, NCI, 2023).

Test system: 556581-035-R-J1-PDC complex spheroid viability
Test: Anticancer human tumor 556581-035-R-J1-PDC patient-derived ovarian carcinoma cell line growth inhibition
Details: for IC50: curve of first compound; for viability, T/C: stronger effect = lower value
From the text: Multicellular complex tumor spheroid response to LSD1 Inhibitor Iadademstat in combination with a variety of drugs and investigational agents in selected tumor cell lines
The current study was undertaken to assess response to LSD1 inhibitors in combination with standard-of-care drugs and investigational agents in solid tumor complex spheroid models as well as in the K-562 leukemia. Complex spheroids include a stromal component modeled by human endothelial cells (HUVEC) and fibroblasts modeled by human mesenchymal stem cells (MSCs). The concentration ranges selected for each drug and investigational agent were based upon clinically achievable concentrations if the clinical Cmax of the agent was known.
Compounds. The drugs and investigational agents used in this study are listed on Table 1. All of the agents used, including staurosporine (NSC755774) and gemcitabine (NSC613327), were obtained from the Developmental Therapeutics Program, NCI. FDA-approved anticancer drugs are available from the NCI at http://dtp.nci.nih.gov/branches/dscb/oncology_drugset_explanation.html. Drugs and investigational agents were >95% pure by proton nuclear magnetic resonance (NMR) and liquid chromatography/mass spectrometry (LC/MS). Stock solutions were prepared at 400x in DMSO, stored at -70 degrees C, and diluted in fresh medium prior to their use. The final concentration of DMSO in cell culture wells never exceeded 0.25% (v/v). The FDA-approved anticancer drug set is available from the Developmental Therapeutics Program at https://dtp.cancer.gov/organization/dscb/obtaining/available_plates.htm. All drugs and investigational agents were tested over a range starting from a high concentration at or near the clinical Cmax and decreasing in half-log increments. If the clinical Cmax for an agent had not been determined, the highest concentration tested was 10 microM.
Cell Lines. The patient-derived cancer cell (PDC) lines: 292921-168-R-J2-PDC, K24384-001-R-PDC, and 521955-158-R2-J5-PDC pancreatic carcinomas, 556581-035-R-J1 ovarian carcinoma, 324938-238-R-J1-PDC, 855422-203-R-J1-PDC and 883617-216-R-J1-PDC urothelial bladder carcinomas, 743489-274-T-PDC renal cell carcinoma, 138582-R-J1 Merkel cell tumor, K60290-347-R-J1 and K57222-313-R-J1-PDC glioblastomas, 653999-131-R-J2-PDC, LG0703-F948-PDC, and 349418-098-R-PDC non-small cell lung carcinomas, 885512-296-R-J2-PDC, 171881-019-R-J1-PDC breast carcinomas and 186277-243-T-J2-PDC and 233499-124-R-J2-PDC colon carcinomas were obtained from the NCI Patient-Derived Models Repository (PDMR, https://pdmr.cancer.gov). The established cell lines NCI/ADR-RES (RRID:CVCL_14520 and OVCAR-5 (RRID:CVCL_1628) ovarian carcinomas, 786-O (RRID:CVCL_1051) and A498 (RRID:CVCL_A498) renal cell carcinoma, NCI-H211 (ATCC, cat. CRL-5824; RRID:CVCL_1529), NCI-H196 (ATCC, cat. CRL-5823, RRID:CVCL_1509), SW 1271 (ATCC, cat. CRL-2177, RRID:CVCL_1716) and NCI-H1876 (ATCC, cat. CRL-5902, RRID:CVCL_1503) small cell lung carcinomas, MDA-MB-231 (RRID:CVCL_0062) and MDA-MB-468 (RRID:CVCL_0419)breast carcinomas (10-12). Pooled donor human umbilical vein endothelial cells (HUVEC, Lonza, cat. CC-2519) and human mesenchymal stem cells (hMSC, Lonza, cat. PT-2501) were purchased from Lonza (Walkersville, MD).
Cell Culture. All cells were maintained in an incubator at 37 degrees C and 5% CO2 with 95% humidity. The PDC lines were cultured according to standard operating procedures established by the NCI PDMR (https://pdmr.cancer.gov). Briefly all PDCs were thawed and cultured in Matrigel-coated flasks prepared with a working solution of 1X Ham's F-12 nutrient mix, without supplementation (Invitrogen, Waltham, MA, cat. 11765054), 100 U/mL penicillin-streptomycin (Invitrogen, cat. 15140122), and 2.5% Matrigel (Corning Inc., Corning, NY, cat. 354248) for the first three passages. […]

[1] = second compound 0.1 µM, first compound 0.00316 µM
[2] = second compound 0.1 µM, first compound 0.01 µM
[3] = second compound 0.1 µM, first compound 0.0316 µM
[4] = second compound 0.1 µM, first compound 0.1 µM
[5] = second compound 0.316 µM, first compound 0.00316 µM
[6] = second compound 0.316 µM, first compound 0.01 µM
[7] = second compound 0.316 µM, first compound 0.0316 µM
[8] = second compound 0.316 µM, first compound 0.1 µM
[9] = second compound 1 µM, first compound 0.00316 µM
[10] = second compound 1 µM, first compound 0.01 µM
[11] = second compound 1 µM, first compound 0.0316 µM
[12] = second compound 1 µM, first compound 0.1 µM
[13] = second compound 3.16 µM, first compound 0.00316 µM
[14] = second compound 3.16 µM, first compound 0.01 µM
[15] = second compound 3.16 µM, first compound 0.0316 µM
[16] = second compound 3.16 µM, first compound 0.1 µM
[17] = second compound 10 µM, first compound 0.00316 µM
[18] = second compound 10 µM, first compound 0.01 µM
[19] = second compound 10 µM, first compound 0.0316 µM
[20] = second compound 10 µM, first compound 0.1 µM
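Note: spheroids exposed to agents for seven days.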
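Throughout, for viability, T/C: 100% = DMSO vehicle control wells.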

`CC[C@@]1(O)C(=O)OCc2c1cc1n(c2=O)Cc2cc3c(CN(C)C)c(O)ccc3nc2-1` + NC1CC1c1ccc(-c2cccc(O)c2)cc1 showed an IC50 (second compound 0.1 µM) of 5.86 nM, an IC50 (second compound 0.316 µM) of 5.85 nM and an IC50 (second compound 1 µM) of 5.62 nM. It also gave an IC50 (second compound 3.16 µM) of 6.11 nM, an IC50 (second compound 10 µM) of 5.17 nM and a viability, T/C (second compound 0.1 µM, first compound 0.000316 µM) of 97.9%. It also gave a viability, T/C (second compound 0.1 µM, first compound 0.001 µM) of 88.2%, a viability, T/C [1] of 67% and a viability, T/C [2] of 34.9%. The viability, T/C [3] was 16.6%, the viability, T/C [4] was 7.12% and the viability, T/C (second compound 0.316 µM, first compound 0.000316 µM) was 95.5%. The viability, T/C (second compound 0.316 µM, first compound 0.001 µM) was 104%, the viability, T/C [5] was 64.8% and the viability, T/C [6] was 34.5%. For the same compound, the viability, T/C [7] was 16.6%, the viability, T/C [8] was 6.13% and the viability, T/C (second compound 1 µM, first compound 0.000316 µM) was 91.2%. The viability, T/C (second compound 1 µM, first compound 0.001 µM) was 95.1%, the viability, T/C [9] was 68.4% and the viability, T/C [10] was 30.3%. The viability, T/C [11] was 13.3%, the viability, T/C [12] was 6.38% and the viability, T/C (second compound 3.16 µM, first compound 0.000316 µM) was 103%. The viability, T/C (second compound 3.16 µM, first compound 0.001 µM) was 96.1%, the viability, T/C [13] was 69.9% and the viability, T/C [14] was 34.7%. The viability, T/C [15] was 14.4%, the viability, T/C [16] was 6.43% and the viability, T/C (second compound 10 µM, first compound 0.000316 µM) was 87.9%. It also gave a viability, T/C (second compound 10 µM, first compound 0.001 µM) of 79.8%, a viability, T/C [17] of 59% and a viability, T/C [18] of 35.6%. For the same compound, the viability, T/C [19] was 20.7% and the viability, T/C [20] was 5.8%.

Compound `COc1cc(C2c3cc4c(cc3C(OC3OC5COC(C)OC5C(O)C3O)C3COC(=O)C23)OCO4)cc(OC)c1O` (stereo not given) + NC1CC1c1ccc(-c2cccc(O)c2)cc1 has an IC50 (second compound 0.1 µM) of 164 nM, an IC50 (second compound 0.316 µM) of 116 nM and an IC50 (second compound 1 µM) of 185 nM. It also gave an IC50 (second compound 3.16 µM) of 316 nM, an IC50 (second compound 10 µM) of 321 nM and a viability, T/C (second compound 0.1 µM, first compound 0.00949 µM) of 92.1%. For the same compound, the viability, T/C (second compound 0.1 µM, first compound 0.03 µM) was 76%, the viability, T/C (second compound 0.1 µM, first compound 0.0949 µM) was 56.4% and the viability, T/C (second compound 0.1 µM, first compound 0.3 µM) was 42.7%. For the same compound, the viability, T/C (second compound 0.1 µM, first compound 0.949 µM) was 30.3%, the viability, T/C (second compound 0.1 µM, first compound 3 µM) was 23.8% and the viability, T/C (second compound 0.316 µM, first compound 0.00949 µM) was 87.8%. For the same compound, the viability, T/C (second compound 0.316 µM, first compound 0.03 µM) was 75.6%, the viability, T/C (second compound 0.316 µM, first compound 0.0949 µM) was 52.9% and the viability, T/C (second compound 0.316 µM, first compound 0.3 µM) was 33.9%. The viability, T/C (second compound 0.316 µM, first compound 0.949 µM) was 31%, the viability, T/C (second compound 0.316 µM, first compound 3 µM) was 22.6% and the viability, T/C (second compound 1 µM, first compound 0.00949 µM) was 90.4%. The viability, T/C (second compound 1 µM, first compound 0.03 µM) was 79.6%, the viability, T/C (second compound 1 µM, first compound 0.0949 µM) was 53.6% and the viability, T/C (second compound 1 µM, first compound 0.3 µM) was 46.3%. For the same compound, the viability, T/C (second compound 1 µM, first compound 0.949 µM) was 29.9%, the viability, T/C (second compound 1 µM, first compound 3 µM) was 18.3% and the viability, T/C (second compound 3.16 µM, first compound 0.00949 µM) was 89.5%. For the same compound, the viability, T/C (second compound 3.16 µM, first compound 0.03 µM) was 72%, the viability, T/C (second compound 3.16 µM, first compound 0.0949 µM) was 63.6% and the viability, T/C (second compound 3.16 µM, first compound 0.3 µM) was 40.5%. The viability, T/C (second compound 3.16 µM, first compound 0.949 µM) was 54.4%, the viability, T/C (second compound 3.16 µM, first compound 3 µM) was 18.4% and the viability, T/C (second compound 10 µM, first compound 0.00949 µM) was 83.6%. The viability, T/C (second compound 10 µM, first compound 0.03 µM) was 77.8%, the viability, T/C (second compound 10 µM, first compound 0.0949 µM) was 59.9% and the viability, T/C (second compound 10 µM, first compound 0.3 µM) was 51.6%. The viability, T/C (second compound 10 µM, first compound 0.949 µM) was 39.5% and the viability, T/C (second compound 10 µM, first compound 3 µM) was 27.8%.

`Nc1ncn(C2CC(O)C(CO)O2)c(=O)n1` (stereo not given) + NC1CC1c1ccc(-c2cccc(O)c2)cc1 was tested, and the IC50 (second compound 0.1 µM) was greater than 1000 nM, the IC50 (second compound 0.316 µM) was greater than 1000 nM and the IC50 (second compound 1 µM) was greater than 1000 nM. It also gave an IC50 (second compound 3.16 µM) greater than 1000 nM, an IC50 (second compound 10 µM) greater than 1000 nM and a viability, T/C [1] of 78.6%. The viability, T/C [2] was 103%, the viability, T/C [3] was 76.2% and the viability, T/C [4] was 75.2%. It also gave a viability, T/C (second compound 0.1 µM, first compound 0.316 µM) of 72.4%, a viability, T/C (second compound 0.1 µM, first compound 1 µM) of 77.8% and a viability, T/C [5] of 103%. The viability, T/C [6] was 101%, the viability, T/C [7] was 77.5% and the viability, T/C [8] was 69.5%. It also gave a viability, T/C (second compound 0.316 µM, first compound 0.316 µM) of 62.8%, a viability, T/C (second compound 0.316 µM, first compound 1 µM) of 73.5% and a viability, T/C [9] of 94.4%. It also gave a viability, T/C [10] of 85.3%, a viability, T/C [11] of 97.4% and a viability, T/C [12] of 75.2%. For the same compound, the viability, T/C (second compound 1 µM, first compound 0.316 µM) was 55.2%, the viability, T/C (second compound 1 µM, first compound 1 µM) was 72.4% and the viability, T/C [13] was 108%. The viability, T/C [14] was 102%, the viability, T/C [15] was 89.4% and the viability, T/C [16] was 54.9%. The viability, T/C (second compound 3.16 µM, first compound 0.316 µM) was 62.3%, the viability, T/C (second compound 3.16 µM, first compound 1 µM) was 69.1% and the viability, T/C [17] was 98.8%. It also gave a viability, T/C [18] of 116%, a viability, T/C [19] of 90.7% and a viability, T/C [20] of 77.4%. The viability, T/C (second compound 10 µM, first compound 0.316 µM) was 86% and the viability, T/C (second compound 10 µM, first compound 1 µM) was 66.9%.
